From publication PMC5218480 (PLoS ONE, 2017)

System: MV-4-11 cells
Assay: Gene expression microarray analysis (Affymetrix PrimeView) and GSEA
Assay type: cell-based, human
Parameters: RFU PODN (11730768_x_at) / Fold change /veh PODN (11730768_x_at) / RFU LINC00158 (11744669_a_at) / Fold change /veh LINC00158 (11744669_a_at) / RFU DUSP10 (11751237_a_at) / Fold change /veh DUSP10 (11751237_a_at) / RFU ID3 (11757404_x_at) / Fold change /veh ID3 (11757404_x_at) / RFU PLEKHG5 (11737974_s_at) / Fold change /veh PLEKHG5 (11737974_s_at) / RFU LRRC4B (11730491_at) / Fold change /veh LRRC4B (11730491_at) / RFU GIMAP4 (11747438_a_at) / Fold change /veh GIMAP4 (11747438_a_at) / RFU KRT8 (11758183_x_at) / Fold change /veh KRT8 (11758183_x_at) / RFU CNN1 (11734310_a_at) / Fold change /veh CNN1 (11734310_a_at) / RFU VPS37D (11726825_at) / Fold change /veh VPS37D (11726825_at) / RFU C10orf10 (11716522_x_at) / Fold change /veh C10orf10 (11716522_x_at) / RFU KIR2DL2 /// KIR2DL4 /// KIR2DL5A /// KIR2DL5B /// KIR2DS1 /// KIR2DS2 /// KIR2DS3 /// KIR2DS4 /// KIR3DL3 /// KIR3DL3 /// KIR3DS1 (11738374_at) / Fold change /veh KIR2DL2 /// KIR2DL4 /// KIR2DL5A /// KIR2DL5B /// KIR2DS1 /// KIR2DS2 /// KIR2DS3 /// KIR2DS4 /// KIR3DL3 /// KIR3DL3 /// KIR3DS1 (11738374_at) / RFU C1QL1 (11718748_at) / Fold change /veh C1QL1 (11718748_at) / RFU TMPRSS4 (11747572_a_at) / Fold change /veh TMPRSS4 (11747572_a_at) / RFU HAMP (11756126_x_at) / Fold change /veh HAMP (11756126_x_at) / RFU RNFT2 (11725882_a_at) / Fold change /veh RNFT2 (11725882_a_at) / RFU NR4A2 (11747474_a_at) / Fold change /veh NR4A2 (11747474_a_at) / RFU ABCC12 (11746883_a_at) / Fold change /veh ABCC12 (11746883_a_at) / RFU TMEM136 (11760407_x_at) / Fold change /veh TMEM136 (11760407_x_at) / RFU CLDN22 /// WWC2 (11732394_at) / Fold change /veh CLDN22 /// WWC2 (11732394_at) / RFU HLA-DPB1 (11760878_x_at) / Fold change /veh HLA-DPB1 (11760878_x_at) / RFU SPINT1 (11716480_a_at) / Fold change /veh SPINT1 (11716480_a_at) / RFU GAP43 (11754022_s_at) / Fold change /veh GAP43 (11754022_s_at) / RFU A4GNT (11735810_at) / Fold change /veh A4GNT (11735810_at) / RFU PRB3 (11715151_x_at) / Fold change /veh PRB3 (11715151_x_at) / RFU TUBB4B (11761932_at) / Fold change /veh TUBB4B (11761932_at) / RFU CAPN14 (11732068_a_at) / Fold change /veh CAPN14 (11732068_a_at) / RFU TMCC2 (11721928_a_at) / Fold change /veh TMCC2 (11721928_a_at) / RFU IRGQ (11745062_a_at) / Fold change /veh IRGQ (11745062_a_at) / RFU FAM174B (11720279_a_at) / Fold change /veh FAM174B (11720279_a_at) / RFU TMPRSS4 (11748680_a_at) / Fold change /veh TMPRSS4 (11748680_a_at) / RFU FAM212B (11763350_a_at) / Fold change /veh FAM212B (11763350_a_at) / RFU PLEKHG5 (11743358_a_at) / Fold change /veh PLEKHG5 (11743358_a_at) / RFU ZSCAN30 (11745921_a_at) / Fold change /veh ZSCAN30 (11745921_a_at) / RFU CMKLR1 (11741424_a_at) / Fold change /veh CMKLR1 (11741424_a_at) / RFU LOC101060620 /// MAPK8IP1 (11723275_at) / Fold change /veh LOC101060620 /// MAPK8IP1 (11723275_at) / RFU SPTSSB (11747773_x_at) / Fold change /veh SPTSSB (11747773_x_at) / RFU PRSS12 (11739890_at) / Fold change /veh PRSS12 (11739890_at) / RFU BIN1 (11741810_x_at) / Fold change /veh BIN1 (11741810_x_at) / RFU WNT11 (11732464_a_at) / Fold change /veh WNT11 (11732464_a_at) / RFU C10orf10 (11716521_a_at) / Fold change /veh C10orf10 (11716521_a_at) / RFU C5orf56 (11738089_at) / Fold change /veh C5orf56 (11738089_at) / RFU CYB561 (11721691_x_at) / Fold change /veh CYB561 (11721691_x_at) / RFU ANKRD19P (11752326_a_at) / Fold change /veh ANKRD19P (11752326_a_at) / RFU OR2T12 /// OR2T33 /// OR2T8 (11738714_s_at) / Fold change /veh OR2T12 /// OR2T33 /// OR2T8 (11738714_s_at) / RFU VCAN (11748164_a_at) / Fold change /veh VCAN (11748164_a_at) / RFU JSRP1 (11732532_at) / Fold change /veh JSRP1 (11732532_at) / RFU KRTAP10-11 (11738290_x_at) / Fold change /veh KRTAP10-11 (11738290_x_at) / RFU MYO3A (11730013_a_at) / Fold change /veh MYO3A (11730013_a_at) / RFU EBF3 (11725865_a_at) / Fold change /veh EBF3 (11725865_a_at) / RFU CAMK2N1 (11719241_x_at) / Fold change /veh CAMK2N1 (11719241_x_at) / RFU C5orf56 (11738088_a_at) / Fold change /veh C5orf56 (11738088_a_at) / RFU OLFML3 (11715873_a_at) / Fold change /veh OLFML3 (11715873_a_at) / RFU LOC100653217 /// NTM (11731650_a_at) / Fold change /veh LOC100653217 /// NTM (11731650_a_at) / RFU MAPK11 (11762145_a_at) / Fold change /veh MAPK11 (11762145_a_at) / RFU FIZ1 (11724087_x_at) / Fold change /veh FIZ1 (11724087_x_at) / RFU OASL (11726364_x_at) / Fold change /veh OASL (11726364_x_at) / RFU SOX15 (11748057_x_at) / Fold change /veh SOX15 (11748057_x_at) / RFU CD79A (11719716_a_at) / Fold change /veh CD79A (11719716_a_at) / RFU HIST1H1D (11736915_at) / Fold change /veh HIST1H1D (11736915_at) / RFU CASKIN2 (11723855_a_at) / Fold change /veh CASKIN2 (11723855_a_at) / RFU LOC730098 (11760151_x_at) / Fold change /veh LOC730098 (11760151_x_at) / RFU OR4N2 (11742367_at) / Fold change /veh OR4N2 (11742367_at) / RFU PRRT2 (11749266_a_at) / Fold change /veh PRRT2 (11749266_a_at) / RFU SNX32 (11753110_a_at) / Fold change /veh SNX32 (11753110_a_at) / RFU CDHR5 (11726645_a_at) / Fold change /veh CDHR5 (11726645_a_at) / RFU RCAN1 (11760418_a_at) / Fold change /veh RCAN1 (11760418_a_at) / RFU FAM167A (11723789_a_at) / Fold change /veh FAM167A (11723789_a_at) / RFU FAM26E (11764081_at) / Fold change /veh FAM26E (11764081_at) / RFU ISYNA1 (11749810_s_at) / Fold change /veh ISYNA1 (11749810_s_at) / RFU ACY1 (11761880_at) / Fold change /veh ACY1 (11761880_at) / RFU 11764098_at / Fold change /veh 11764098_at / RFU SAMD14 (11745864_x_at) / Fold change /veh SAMD14 (11745864_x_at) / RFU NPB (11741838_a_at) / Fold change /veh NPB (11741838_a_at) / RFU TMPRSS6 (11731388_a_at) / Fold change /veh TMPRSS6 (11731388_a_at) / RFU KRTAP10-2 (11738614_at) / Fold change /veh KRTAP10-2 (11738614_at) / RFU ARHGAP8 /// PRR5-ARHGAP8 (11727945_x_at) / Fold change /veh ARHGAP8 /// PRR5-ARHGAP8 (11727945_x_at) / RFU KRTAP5-7 /// NADSYN1 (11734609_at) / Fold change /veh KRTAP5-7 /// NADSYN1 (11734609_at) / RFU RASL12 (11751679_a_at) / Fold change /veh RASL12 (11751679_a_at) / RFU CDKN2B (11736163_a_at) / Fold change /veh CDKN2B (11736163_a_at) / RFU PRF1 (11729649_at) / Fold change /veh PRF1 (11729649_at) / RFU, ZNF638 /// ZNF638-IT1 / Fold change vs veh, ZNF638 /// ZNF638-IT1 / RFU, PANK3 / Fold change vs veh, PANK3 / RFU, SH3YL1 / Fold change vs veh, SH3YL1 / RFU, ZEB2 / Fold change vs veh, ZEB2 / RFU, NRIP1 / Fold change vs veh, NRIP1 / RFU, PTTG1IP / Fold change vs veh, PTTG1IP / RFU, CAPN2 / Fold change vs veh, CAPN2 / RFU, MED14 / Fold change vs veh, MED14 / RFU, SNORA58 / Fold change vs veh, SNORA58 / RFU, C1orf63 / Fold change vs veh, C1orf63 / RFU, LRRFIP1 / Fold change vs veh, LRRFIP1 / RFU, NDUFAF7 / Fold change vs veh, NDUFAF7 / RFU, SLC12A2 / Fold change vs veh, SLC12A2 / RFU, IBTK / Fold change vs veh, IBTK / RFU, ESF1 / Fold change vs veh, ESF1 / Fold change vs veh, TMEM50B / RFU, TAOK1 / Fold change vs veh, TAOK1 / RFU, ACBD3 / Fold change vs veh, ACBD3 / RFU, TMA16 / Fold change vs veh, TMA16 / RFU, RWDD3 / Fold change vs veh, RWDD3 / RFU, BCAT1 / Fold change vs veh, BCAT1 / RFU, EDEM3 / Fold change vs veh, EDEM3 / RFU, TMEM33 / Fold change vs veh, TMEM33 / RFU, WDR75 / Fold change vs veh, WDR75 / RFU, AHCTF1 / Fold change vs veh, AHCTF1 / RFU, TFRC / Fold change vs veh, TFRC / RFU, ZDHHC17 / Fold change vs veh, ZDHHC17 / RFU, NOM1 / Fold change vs veh, NOM1 / RFU, ARL8B / Fold change vs veh, ARL8B / RFU, ZBTB11 / Fold change vs veh, ZBTB11 / RFU, TAMM41 / Fold change vs veh, TAMM41 / RFU, KIAA1704 /// LOC100996395 / Fold change vs veh, KIAA1704 /// LOC100996395 / RFU, ING1 / Fold change vs veh, ING1 / RFU, TRMT61B / Fold change vs veh, TRMT61B / RFU, FUBP3 / Fold change vs veh, FUBP3 / RFU, TP53 / Fold change vs veh, TP53 / RFU, TNKS2 / Fold change vs veh, TNKS2 / RFU, ZFP14 / Fold change vs veh, ZFP14 / RFU, ACTR2 / Fold change vs veh, ACTR2 / RFU, PPP3R1 / Fold change vs veh, PPP3R1 / RFU, PIK3R1 / Fold change vs veh, PIK3R1 / RFU, HNRNPA1 / Fold change vs veh, HNRNPA1 / RFU, RNF170 / Fold change vs veh, RNF170 / RFU, ZNF28 / Fold change vs veh, ZNF28 / RFU, RNGTT / Fold change vs veh, RNGTT / RFU, OGT / Fold change vs veh, OGT / RFU, BRD1 / Fold change vs veh, BRD1 / RFU, MARS / Fold change vs veh, MARS / RFU, ZNF655 / Fold change vs veh, ZNF655 / RFU, FAHD1 / Fold change vs veh, FAHD1 / RFU, BDP1 / Fold change vs veh, BDP1 / RFU, LRRCC1 / Fold change vs veh, LRRCC1 / RFU, ARID1A / Fold change vs veh, ARID1A / RFU, ZNF146 / Fold change vs veh, ZNF146 / RFU, ZNF330 / Fold change vs veh, ZNF330 / RFU, GPN3 / Fold change vs veh, GPN3 / RFU, C9orf123 / Fold change vs veh, C9orf123 / RFU, N4BP2L2 / Fold change vs veh, N4BP2L2 / RFU, ARFIP1 / Fold change vs veh, ARFIP1 / RFU, FAM179B / Fold change vs veh, FAM179B / RFU, BCL10 / Fold change vs veh, BCL10 / RFU, UHRF1BP1L / Fold change vs veh, UHRF1BP1L / RFU, BET1 / Fold change vs veh, BET1 / RFU, CNOT2 / Fold change vs veh, CNOT2 / RFU, ZNF268 / Fold change vs veh, ZNF268 / Fold change vs veh, ZNF507 / RFU, DGCR2 / Fold change vs veh, DGCR2 / RFU, WDSUB1 / Fold change vs veh, WDSUB1 / Fold change vs veh, HSP90B1 /// MIR3652 / RFU, ADSS / Fold change vs veh, ADSS / RFU, GK / Fold change vs veh, GK / RFU, ZNF148 / Fold change vs veh, ZNF148 / RFU, TAF9 / Fold change vs veh, TAF9 / RFU, SLC1A5 / Fold change vs veh, SLC1A5 / RFU, SLMO2 / Fold change vs veh, SLMO2 / RFU, ABCC4 / Fold change vs veh, ABCC4 / RFU, LOC101060439 /// RAP1B / Fold change vs veh, LOC101060439 /// RAP1B / RFU, RFX7 / Fold change vs veh, RFX7 / RFU, GTPBP10 / Fold change vs veh, GTPBP10 / RFU, CNEP1R1 / Fold change vs veh, CNEP1R1 / RFU, BIVM-ERCC5 /// ERCC5 / Fold change vs veh, BIVM-ERCC5 /// ERCC5 / RFU, ILF3 / Fold change vs veh, ILF3 / RFU 11762660_at / Fold change /veh 11762660_at / RFU VCAN (11757783_s_at) / Fold change /veh VCAN (11757783_s_at) / RFU DDX43 (11728927_at) / Fold change /veh DDX43 (11728927_at) / RFU KRT8 (11758188_x_at) / Fold change /veh KRT8 (11758188_x_at) / RFU NKD1 (11759106_at) / Fold change /veh NKD1 (11759106_at) / RFU SRD5A1 (11742802_a_at) / Fold change /veh SRD5A1 (11742802_a_at) / RFU TPSAB1 /// TPSB2 (11721975_s_at) / Fold change /veh TPSAB1 /// TPSB2 (11721975_s_at) / RFU GSTM3 (11746129_a_at) / Fold change /veh GSTM3 (11746129_a_at) / RFU IL23R (11737362_x_at) / Fold change /veh IL23R (11737362_x_at) / RFU TMEM51 (11727254_a_at) / Fold change /veh TMEM51 (11727254_a_at) / RFU PIWIL2 (11732686_x_at) / Fold change /veh PIWIL2 (11732686_x_at) / RFU ORM1 (11744905_x_at) / Fold change /veh ORM1 (11744905_x_at) / RFU CCDC152 (11743942_at) / Fold change /veh CCDC152 (11743942_at) / RFU ECM1 (11717891_a_at) / Fold change /veh ECM1 (11717891_a_at) / RFU IL23R (11748794_a_at) / Fold change /veh IL23R (11748794_a_at) / RFU TNFAIP8L3 (11732012_x_at) / Fold change /veh TNFAIP8L3 (11732012_x_at) / RFU MBOAT4 (11741988_at) / Fold change /veh MBOAT4 (11741988_at) / RFU 11764193_at / Fold change /veh 11764193_at / RFU TMEM53 (11763286_at) / Fold change /veh TMEM53 (11763286_at) / RFU MAGEB2 (11727129_at) / Fold change /veh MAGEB2 (11727129_at) / RFU TMEM200A (11744735_a_at) / Fold change /veh TMEM200A (11744735_a_at) / RFU CCDC152 (11751479_a_at) / Fold change /veh CCDC152 (11751479_a_at) / RFU FAM211A (11726209_a_at) / Fold change /veh FAM211A (11726209_a_at) / RFU RGS16 (11746705_a_at) / Fold change /veh RGS16 (11746705_a_at) / RFU VCAN (11755009_s_at) / Fold change /veh VCAN (11755009_s_at) / RFU RHOB (11743442_s_at) / Fold change /veh RHOB (11743442_s_at) / RFU RGS16 (11720943_a_at) / Fold change /veh RGS16 (11720943_a_at) / RFU RGS16 (11720944_at) / Fold change /veh RGS16 (11720944_at) / RFU, VPS4B / Fold change vs veh, VPS4B / RFU, CREB1 / Fold change vs veh, CREB1 / RFU, DNAJC13 / Fold change vs veh, DNAJC13 / RFU, GNAQ / Fold change vs veh, GNAQ / RFU, CDK5R1 / Fold change vs veh, CDK5R1 / RFU, ZRANB3 / Fold change vs veh, ZRANB3 / RFU, CUL4A / Fold change vs veh, CUL4A / RFU, CCNY / Fold change vs veh, CCNY / RFU, UFL1 / Fold change vs veh, UFL1 / RFU, COG3 / Fold change vs veh, COG3 / RFU, DIAPH2 / Fold change vs veh, DIAPH2 / RFU, SKA2 / Fold change vs veh, SKA2 / RFU, AFF3 / Fold change vs veh, AFF3 / RFU, LMF1 / Fold change vs veh, LMF1 / RFU, IPO11 / Fold change vs veh, IPO11 / RFU, DFFB / Fold change vs veh, DFFB / RFU, FOXP1 / Fold change vs veh, FOXP1 / RFU, CARD8 / Fold change vs veh, CARD8 / RFU, STRN3 / Fold change vs veh, STRN3 / RFU, ADK / Fold change vs veh, ADK / RFU, RASSF2 / Fold change vs veh, RASSF2 / RFU, WIPF1 / Fold change vs veh, WIPF1 / RFU, LARP1B / Fold change vs veh, LARP1B / RFU, RASA1 / Fold change vs veh, RASA1 / RFU, RB1 / Fold change vs veh, RB1 / RFU, PPFIA1 / Fold change vs veh, PPFIA1 / RFU, MAT2A / Fold change vs veh, MAT2A / RFU, CCT5 / Fold change vs veh, CCT5 / RFU, WDR92 / Fold change vs veh, WDR92 / RFU, CUX1 / Fold change vs veh, CUX1 / RFU, TTC7A / Fold change vs veh, TTC7A / RFU, TMEM135 / Fold change vs veh, TMEM135 / RFU, DEPTOR / Fold change vs veh, DEPTOR / RFU, CPM / Fold change vs veh, CPM / RFU, DNAJB6 / Fold change vs veh, DNAJB6 / RFU, CACNA2D3 / Fold change vs veh, CACNA2D3 / RFU, DTX4 / Fold change vs veh, DTX4 / RFU, TFCP2 / Fold change vs veh, TFCP2 / RFU, GMCL1 /// GMCL1P1 / Fold change vs veh, GMCL1 /// GMCL1P1 / RFU, AEBP2 / Fold change vs veh, AEBP2 / RFU, SNHG1 /// SNORD22 /// SNORD25 /// SNORD26 /// SNORD27 /// SNORD28 /// SNORD29 /// SNORD31 / Fold change vs veh, SNHG1 /// SNORD22 /// SNORD25 /// SNORD26 /// SNORD27 /// SNORD28 /// SNORD29 /// SNORD31 / Fold change (Aza/veh), C12orf56 (ProbeSet 11735607_a_at) / Fold change (ACY-1035/veh), C12orf56 (ProbeSet 11735607_a_at) / Fold change (Aza/veh), FGFR1OP (ProbeSet 11751329_s_at) / Fold change (ACY-1035/veh), FGFR1OP (ProbeSet 11751329_s_at) / Fold change (Aza/veh), VPS36 (ProbeSet 11739960_a_at) / Fold change (ACY-1035/veh), VPS36 (ProbeSet 11739960_a_at) / RFU SYPL1 (11715823_x_at) / Fold change /veh SYPL1 (11715823_x_at) / RFU IGFBP7 (11715501_s_at) / Fold change /veh IGFBP7 (11715501_s_at) / RFU REEP3 (11722064_at) / Fold change /veh REEP3 (11722064_at) / RFU IGLL1 (11728026_x_at) / Fold change /veh IGLL1 (11728026_x_at): dose or concentration left out as unconfirmed
Details: MV-4-11 cells, 48 hours

Nc1ncn([C@@H]2O[C@H](CO)[C@@H](O)[C@H]2O)c(=O)n1 [azacitidine]
RFU KRTAP5-7 /// NADSYN1 (11734609_at): 11.87 RFU
